Assay results: article PMC11203919, “Heat Stress and Microbial Stress Induced Defensive Phenol Accumulation in Medicinal Plant Sparganium stoloniferum” (International Journal of Molecular Sciences, 2024)

Molecular target: T1, SsC4H (Sparganium stoloniferum, UniProt A0AAU8GF87)
T1 construct: gene C4H; pYeDP60 in yeast WAT11 culture, not purified
Assay: substrate feeding of yeast culture, LC-MS/MS of p-coumaric acid
Format: cell-based
Settings: 0.5 mM substrate, 16 °C, 12 h; yeast WAT11

T1 sequence (A0AAU8GF87 entry or part of it): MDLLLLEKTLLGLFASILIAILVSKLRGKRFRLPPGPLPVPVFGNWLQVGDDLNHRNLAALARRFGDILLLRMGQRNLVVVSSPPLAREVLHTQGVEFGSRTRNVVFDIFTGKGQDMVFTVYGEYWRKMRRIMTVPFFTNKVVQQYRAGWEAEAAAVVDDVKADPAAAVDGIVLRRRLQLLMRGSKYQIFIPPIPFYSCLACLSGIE

## O=C(O)/C=C/c1ccccc1 [trans-cinnamic acid]
  substrate feeding of yeast culture, LC-MS/MS of p-coumaric acid: Upon adding trans-cinnamic acid to the SsC4H-pYeDP60-WAT11 culture, hydroxylation occurred to produce p-coumaric acid
